Laboratory results as given in ChEMBL document CHEMBL5120759, “Synthesis, Biological Evaluation, and Molecular Docking Study of 3-Amino and 3-Hydroxy-seco A Derivatives of α-Amyrin and 3-Epilupeol as Inhibitors of COX-2 Activity and NF-kB Activation” (J Nat Prod, 2022).
The source made the active and inactive calls. No cut-off for these calls is given here.

Legend:
RAW264.7 [1] = assay: Cytotoxicity against mouse RAW264.7 cells assessed as reduction in cell viability at 8.8 to 70 uM incubated for 24 hrs by MTS assay; assay type: toxicity, cell-based; details: raw264.7, 24 h, dose 8.8-70 µM
Mus musculus = assay: Anti-inflammatory activity against TPA-induced auricular edema CD-1 mouse model assessed as inhibition of ear edema at 1 mg per ear applied immediately after TPA application and measured after 4 hrs relative to control; assay type: functional
[2] = target: T1, Prostaglandin G/H synthase 2 (Homo sapiens) (UniProt P35354); assay: Inhibition of human COX-2 at 17.5 uM using arachidonic acid as substrate by colorimetric analysis
T1 sequence (whole entry): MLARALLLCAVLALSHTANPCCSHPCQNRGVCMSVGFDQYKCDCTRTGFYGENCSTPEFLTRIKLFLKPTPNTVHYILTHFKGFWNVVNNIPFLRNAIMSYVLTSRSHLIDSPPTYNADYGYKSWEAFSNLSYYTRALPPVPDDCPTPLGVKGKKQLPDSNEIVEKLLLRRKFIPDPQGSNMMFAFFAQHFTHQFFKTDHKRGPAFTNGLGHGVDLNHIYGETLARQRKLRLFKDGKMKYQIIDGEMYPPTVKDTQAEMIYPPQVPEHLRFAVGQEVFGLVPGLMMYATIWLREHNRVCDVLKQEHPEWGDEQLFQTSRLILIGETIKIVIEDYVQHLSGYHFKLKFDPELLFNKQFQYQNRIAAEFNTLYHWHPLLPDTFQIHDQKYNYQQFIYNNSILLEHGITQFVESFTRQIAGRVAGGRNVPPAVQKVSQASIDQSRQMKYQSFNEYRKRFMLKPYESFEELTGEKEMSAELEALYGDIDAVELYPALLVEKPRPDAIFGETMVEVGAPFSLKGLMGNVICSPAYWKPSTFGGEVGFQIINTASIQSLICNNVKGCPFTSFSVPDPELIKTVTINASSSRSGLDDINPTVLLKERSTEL

RAW-Blue [3] = assay: Inhibition of NF-kappaB activation in LPS-stimulated mouse RAW-Blue cells at 70 uM preincubated for 2 hrs followed by LPS stimulation and measured after 20 hrs by QUANTI-Blue assay; assay type: cell-based; details: time 22.0 hrs
RAW264.7 [4] = assay: Antiinflammatory activity against LPS-stimulated mouse RAW264.7 cells assessed as inhibition of NO production at 8.8 to 70 uM prestimulated with LPS and 2 hrs later incubated with compound by Griess reagent based assay; assay type: functional, cell-based; details: dose 8.8-70 µM
RAW264.7 [5] = assay: Antiinflammatory activity against LPS-stimulated mouse RAW264.7 cells assessed as inhibition of TNF-alpha production at 17.5 to 70 uM prestimulated with LPS and 2 hrs later incubated with compound by […] assay; assay type: functional, cell-based; details: dose 17.5-70 µM
[6] = target: T2, COX-1 (Prostaglandin G/H synthase 1) (Ovis aries, UniProt P05979); assay: Inhibition of ovine COX-1 at 17.5 uM using arachidonic acid as substrate by colorimetric analysis; assay type: single protein; details: sheep, ovine COX-1 enzyme, probe arachidonic acid
T2 sequence (P05979 whole entry): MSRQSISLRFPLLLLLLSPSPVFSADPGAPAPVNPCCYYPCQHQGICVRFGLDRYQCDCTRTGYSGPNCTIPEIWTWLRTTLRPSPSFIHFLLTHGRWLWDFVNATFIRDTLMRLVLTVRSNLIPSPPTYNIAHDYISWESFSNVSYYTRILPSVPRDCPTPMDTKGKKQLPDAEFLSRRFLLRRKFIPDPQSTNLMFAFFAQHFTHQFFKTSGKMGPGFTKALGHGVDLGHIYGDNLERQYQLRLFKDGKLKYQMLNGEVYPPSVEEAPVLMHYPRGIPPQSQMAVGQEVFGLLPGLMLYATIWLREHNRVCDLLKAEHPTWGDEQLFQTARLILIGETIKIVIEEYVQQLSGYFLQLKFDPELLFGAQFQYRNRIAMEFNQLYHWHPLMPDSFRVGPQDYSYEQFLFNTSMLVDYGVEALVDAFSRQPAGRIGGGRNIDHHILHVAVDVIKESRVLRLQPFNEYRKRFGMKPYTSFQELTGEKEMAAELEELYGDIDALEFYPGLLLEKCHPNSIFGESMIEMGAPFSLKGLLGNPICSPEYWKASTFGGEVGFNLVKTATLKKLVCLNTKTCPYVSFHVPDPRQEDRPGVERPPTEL

RAW264.7 [7] = assay: Antiinflammatory activity against LPS-stimulated mouse RAW264.7 cells assessed as inhibition of TNF-alpha production at 70 uM incubated for 2 hrs followed by LPS stimulation for 20 hrs by ELISA relative to control; assay type: functional; details: time 22 hrs
RAW264.7 [8] = assay: Antiinflammatory activity against LPS-stimulated mouse RAW264.7 cells assessed as inhibition of IL-6 production at 17.5 to 70 uM prestimulated with LPS and 2 hrs later incubated with compound by […] assay; assay type: functional, cell-based; details: dose 17.5-70 µM
RAW264.7 [9] = assay: Antiinflammatory activity against LPS-stimulated mouse RAW264.7 cells assessed as inhibition of IL-6 production at 70 uM incubated for 2 hrs followed by LPS stimulation for 20 hrs by ELISA relative to control; assay type: functional; details: time 22 hrs
RAW264.7 [10] = assay: Antiinflammatory activity against LPS-stimulated mouse RAW264.7 cells assessed as inhibition of NO production incubated for 2 hrs followed by LPS stimulation for 20 hrs by Griess reagent based assay; assay type: functional, cell-based
[11] = Cytotoxicity against mouse RAW264.7 cells assessed as cell viability at 70 uM incubated for 24 hrs by MTS assay relative to control; assay type: toxicity, cell-based; details: read-out: Activity
RAW-Blue [12] = assay: Inhibition of NF-kappaB activation in LPS-stimulated mouse RAW-Blue cells at 17.5 uM preincubated for 2 hrs followed by LPS stimulation and measured after 20 hrs by QUANTI-Blue assay; assay type: cell-based; details: time 22.0 hrs
[13] = Cytotoxicity against mouse RAW264.7 cells assessed as cell viability at 35 uM incubated for 24 hrs by MTS assay relative to control; assay type: toxicity, cell-based; details: read-out: Activity
RAW264.7 [14] = assay: Antiinflammatory activity against LPS-stimulated mouse RAW264.7 cells assessed as inhibition of IL-6 production at 8.8 to 35 uM prestimulated with LPS and 2 hrs later incubated with compound by […] assay; assay type: functional, cell-based; details: dose 8.8-35 µM
RAW264.7 [15] = assay: Antiinflammatory activity against LPS-stimulated mouse RAW264.7 cells assessed as inhibition of IL-6 production incubated for 2 hrs followed by LPS stimulation for 20 hrs by ELISA; assay type: functional, cell-based
RAW-Blue [16] = assay: Inhibition of NF-kappaB activation in LPS-stimulated mouse RAW-Blue cells at 35 uM preincubated for 2 hrs followed by LPS stimulation and measured after 20 hrs by QUANTI-Blue assay; assay type: cell-based; details: time 22.0 hrs
RAW264.7 [17] = assay: Antiinflammatory activity against LPS-stimulated mouse RAW264.7 cells assessed as inhibition of NO production at 4.4 to 35 uM prestimulated with LPS and 2 hrs later incubated with compound by Griess reagent based assay; assay type: functional, cell-based; details: dose 4.4-35 µM
RAW264.7 [18] = assay: Antiinflammatory activity against LPS-stimulated mouse RAW264.7 cells assessed as inhibition of TNF-alpha production at 8.8 to 35 uM prestimulated with LPS and 2 hrs later incubated with compound by […] assay; assay type: functional, cell-based; details: dose 8.8-35 µM
RAW264.7 [19] = assay: Antiinflammatory activity against LPS-stimulated mouse RAW264.7 cells assessed as inhibition of TNF-alpha production at 35 uM incubated for 2 hrs followed by LPS stimulation for 20 hrs by ELISA relative to control; assay type: functional; details: time 22 hrs
RAW264.7 [20] = assay: Antiinflammatory activity against LPS-stimulated mouse RAW264.7 cells assessed as inhibition of IL-6 production at 84 uM incubated for 2 hrs followed by LPS stimulation for 20 hrs by ELISA relative to control; assay type: functional; details: time 22 hrs
RAW264.7 [21] = assay: Antiinflammatory activity against LPS-stimulated mouse RAW264.7 cells assessed as inhibition of TNF-alpha production at 84 uM incubated for 2 hrs followed by LPS stimulation for 20 hrs by ELISA relative to control; assay type: functional; details: time 22 hrs

inhibition [2]	IC50 (RAW264.7 [10])	SMILES	Activity (RAW264.7 [1])	inhibition (INH) (Mus musculus)	inhibition (RAW-Blue [3])	Activity (RAW264.7 [4])	Activity (RAW264.7 [5])	inhibition at 17.5 µM [6]	inhibition at 70 µM (RAW264.7 [7])	Activity (RAW264.7 [8])	viability at 24 h, 70 µM [11]	other results
49.2%	–	C=C(C)[C@@H]1CC[C@]2(C)CC[C@]3(C)[C@H](CC[C@@H]4[C@@](C)(CCCN5CCOCC5)[C@H](C(=C)C)CC[C@]43C)[C@@H]12	Non-Toxic	11.1%	–	–	–	–	–	–	–	–
61.8%	42.9 µM	C=C(C)[C@@H]1CC[C@]2(C)[C@H](CC=C3[C@@H]4[C@@H](C)[C@H](C)CC[C@]4(C)CC[C@]32C)[C@@]1(C)CCCN1C[C@H](O)C[C@H]1C(=O)OC	Non-Toxic	25.2%	96.2%	Active	Active	37.3%	70%	Active	–	inhibition at 70 µM (RAW264.7 [9]): 89.1%
–	13.8 µM	C[C@H]1[C@H](C)CC[C@]2(C(=O)O)CC[C@]3(C)C(=CC[C@@H]4[C@@]5(C)CC[C@H](O)C(C)(C)[C@@H]5CC[C@]43C)[C@H]12 [URSOLIC ACID]	–	34.2%	–	–	–	23.6%	–	–	13.9%	inhibition (RAW-Blue [12]): 52.2%; viability at 24 h, 35 µM [13]: 30%
–	23.2 µM	C=C(C)[C@@H]1CC[C@]2(C)CC[C@]3(C)[C@H](CC[C@@H]4[C@@](C)(CCCN5C[C@H](O)C[C@H]5C(=O)OC)[C@H](C(=C)C)CC[C@]43C)[C@@H]12	–	36.4%	–	Active	–	7.2%	–	–	64.2%	Activity (RAW264.7 [14]): Active; IC50 (RAW264.7 [15]): 11.1 µM; inhibition (RAW-Blue [16]): 87.4%; Activity (RAW264.7 [17]): Active; Activity (RAW264.7 [18]): Active; inhibition at 35 µM (RAW264.7 [19]): 55.7%
61.8%	–	C=C(C)[C@@H]1CC[C@]2(C)[C@H](CC=C3[C@@H]4[C@@H](C)[C@H](C)CC[C@]4(C)CC[C@]32C)[C@@]1(C)CCCNCC(=O)OC	Non-Toxic	40.1%	–	–	–	33.3%	–	–	–	–
–	–	C=C(C)[C@@H]1CC[C@]2(C)CC[C@]3(C)[C@H](CC[C@@H]4[C@@]5(C)CC[C@@H](O)C(C)(C)[C@@H]5CC[C@]43C)[C@H]12	–	66.4%	–	–	–	–	–	–	–	–
–	40.7 µM	COc1ccc2c(c1)c(CC(=O)O)c(C)n2C(=O)c1ccc(Cl)cc1 [INDOMETHACIN]	–	91.4%	–	–	–	–	–	–	–	inhibition at 84 µM (RAW264.7 [20]): 44.2%; inhibition at 84 µM (RAW264.7 [21]): 54.6%
74.4%	–	C=C(C)[C@@H]1CC[C@]2(C)[C@H](CC=C3[C@@H]4[C@@H](C)[C@H](C)CC[C@]4(C)CC[C@]32C)[C@@]1(C)CCCN1CCOCC1	–	12.2%	–	–	–	12.2%	–	–	73.8%	–
66.3%	58.9 µM	C=C(C)[C@@H]1CC[C@]2(C)[C@H](CC=C3[C@@H]4[C@@H](C)[C@H](C)CC[C@]4(C)CC[C@]32C)[C@@]1(C)CCCO	Non-Toxic	9.5%	22%	Active	Active	–	68.5%	Active	–	inhibition at 70 µM (RAW264.7 [9]): 40.2%
26%	54.4 µM	C=C(C)[C@@H]1CC[C@]2(C)CC[C@]3(C)[C@H](CC[C@@H]4[C@@](C)(CCCO)[C@H](C(=C)C)CC[C@]43C)[C@@H]12	Non-Toxic	17.3%	63.4%	Active	Active	14.8%	49.8%	Active	–	IC50 (RAW264.7 [15]): 38 µM
